Data as given in paper PMC6691016, “Glycosylation influences activity, stability and immobilization of the feruloyl esterase 1a from Myceliophthora thermophila” (AMB Express, 2019).

Legend:
[1] = target: T1, P-Fae (MtFae1a produced in P. pastoris) (Thermothelomyces thermophilus, UniProt G2QND5); experiment: continuous absorbance assay at […] nm, non-linear regression; assay type: biochemical; details: substrate inhibition constant; free enzyme, 100 mM sodium phosphate pH 7.0, 35 °C; 5% DMSO
T1 construct: gene Fae1a; mature (signal peptide, first 18 residues, removed); secreted from Pichia pastoris GS115 (vector pPNic706); no tag stated; N-glycosylated at Asn117 and Asn179 with larger glycans; calculated MW 29506 Da, 33 kDa on SDS-PAGE; homodimer only predicted
T1 sequence (G2QND5 19-291): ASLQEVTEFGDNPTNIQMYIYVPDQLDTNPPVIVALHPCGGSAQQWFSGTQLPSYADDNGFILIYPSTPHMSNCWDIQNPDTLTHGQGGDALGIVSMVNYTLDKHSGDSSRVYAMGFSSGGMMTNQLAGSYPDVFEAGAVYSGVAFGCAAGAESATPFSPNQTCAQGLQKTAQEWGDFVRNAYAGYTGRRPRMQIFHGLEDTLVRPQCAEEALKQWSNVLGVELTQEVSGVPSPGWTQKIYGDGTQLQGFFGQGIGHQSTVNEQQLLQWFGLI

[2] = target: T2, M-Fae (MtFae1a produced in M. thermophila) (Thermothelomyces thermophilus, UniProt G2QND5); experiment: as above; assay type: biochemical; details: substrate inhibition constant; free enzyme, 100 mM sodium phosphate pH 7.0, 35 °C; 5% DMSO
T2 construct: gene Fae1a; mature (signal peptide, first 18 residues, removed); homologous over-production in M. thermophila C1; no tag stated; N-glycosylated at Asn117 and Asn179; calculated MW 29506 Da, 31 kDa on SDS-PAGE; homodimer only predicted
T2 sequence (G2QND5 19-291): as above

Ksi [1]: 1.84 ± 0.28 mM
Ksi [2]: 1.46 ± 0.29 mM
SMILES: COC(=O)/C=C/c1ccc(O)cc1 [MpCA, methyl p-coumarate]
